Source: paper PMC11284790, “Targeting Myeloperoxidase Ameliorates Gouty Arthritis: A Virtual Screening Success Story” (Journal of Medicinal Chemistry, 2024)
Read-outs that look alike come from different tables or passages of the source.

How the values were obtained:
MSU-induced paw edema = test: MSU-induced paw edema, intraperitoneal treatment; format: in vivo; conditions: for effect on paw edema over time: i.p. 30 min before MSU, mefenamic acid 30 mg/kg, RL6 3, 10, 30, RL7 0.3, 3, 30, ZINC9089086 3, 10, 30 mg/kg, 6 h
Experimental: MSU-induced edema was performed as previously described.[22] The compounds were prepared by dilution in a solution containing 0.5% Tween 80 and 5% DMSO and then resuspended in PBS prior to administration. The animals were treated intraperitoneally (i.p.) with the following substances: vehicle (VEH: 5% DMSO; 0.5% Tween 80 in PBS), mefenamic acid (a nonsteroidal anti-inflammatory drug at a dosage of 30 mg/kg), RL6 (at doses of 3, 10, and 30 mg/kg), RL7 (at doses of 0.3, 3, and 30 mg/kg), or ZINC9089086 (at doses of 3, 10, and 30 mg/kg).[31] After 30 min, the mice were anesthetized using inhaled isoflurane (2% v/v in O2). A hypodermic syringe with a 31-gauge needle (BD, Franklin Lakes, NJ, USA) was used to administer the vehicle (VEH: PBS, 30 μL) or MSU (1.5 mg/30 μL) via the intraplantar route (i.pl.), into the right hind paw (Figure 9).
Paw volume (mL) was measured at various time points, including before injection (baseline, B), […] 1, 2, 3, 4, 5, and 6 h following MSU injection using a plethysmometer (Ugo Basile, Comerio, Italy) (Figure 7). For this, the injected hind paw was immersed into the dipping solution (6 mM NaCl diluted in distilled water and added with 2 mL/L of a wetting compound provided by the manufacturer) until the ankle. The extent of edema was quantified as a change in paw volume (Δ mL) by subtracting the basal paw volume from the volume of the paw measured at each time point. To evaluate the antiedematogenic effect of orally administered MPO inhibitors (p.o.), the animals were fasted for 1 h and then treated with equimolar doses of the following substances: vehicle (VEH: 5% DMSO; 0.5% tween 80 in PBS), mefenamic acid (30 mg/kg), RL 6 (33 mg/kg), RL 7 (54 mg/kg), RL 21 (30 mg/kg), or ZINC9089086 (34 mg/kg). After 1 h, the anesthetized mice (2% isoflurane, v/v in O2) received either the vehicle (PBS, 30 μL, i.pl.) or 1.5 mg/30 μL MSU (i.pl.). The paw volume was evaluated at the same time points as previously described. The percentage of edema inhibition by the compounds was calculated discounting the paw volume of mice that received oral or intraperitoneal vehicle and PBS intraplantar (VEH + VEH).

Human leukocyte MPO = Human leukocyte MPO (Homo sapiens, UniProt P05164); test: MPO chlorinating activity assay (taurine chloramine/TMB); format: biochemical; design: Human leukocyte MPO (EC 1.7.1.11) was purchased from Planta Natural Products; purchased Planta Natural Products (Vienna, Austria); host or cells: human leukocytes; conditions: for IC50: pH 7.4
Experimental: Chlorinating activity was carried out in phosphate buffer (20 mM, pH 7.4). Compounds (20 μM) were dissolved in 0.03% DMSO, MPO (10 nM), diethylenetriaminepentaacetic acid (100 μM), cetyltrimethylammonium chloride (0.03%), NaCl (140 mM), and taurine (5 mM).[31] This mixture was incubated at 37 °C for 15 min before adding 40 μM hydrogen peroxide. The reaction ran for 8 min and was then stopped by catalase (20 μg/mL). Oxidation of TMB (2 mM) (3,3,5,5-tetramethylbenzidine) by taurine chloroamine catalyzed by iodide (100 μM) was quantified at 650 nm.[33] Results were expressed as a percentage of the control (vehicle). IC50 was calculated by nonlinear regression using the Hill equation present in GraphPad Prism 5 software.

hTERT-RPE1 cells = test: Cell viability assay (XTT); format: cell-based; conditions: 2-50 μM, 72 h
Experimental: hTERT-RPE1 cells were seeded in 24-well plates at 2 × 10^4 cells per well. After 24 h, cells were treated with 2, 5, 10, 25, or 50 μM RL6, RL7, or PTU in a culture medium (DMEM/F-12 with HEPES and 10% FBS). DMSO was added to untreated cells at 0.42% concentration as a vehicle control. After 72 h of treatment, cells were washed with PBS and left in 200 μL of XTT working solution for 3 h. The working solution was prepared according to manufacturer’s instructions but diluted eightfold in PBS. The supernatant was transferred to a 96-well plate; absorbance was read at 450 and 750 nm in a Synergy (Biotek, Winooski, VE, USA) plate reader and presented as percentage of control.
Figure S5. Evaluation of cytotoxicity by XTT. hTERT-RPE1 cells were seeded in 24-
well plates at 2 × 10^4 cells per well. 24h later, cells were treated with RL6, RL7 or PTU
(2, 5, 10, 25, 50 µM) in culture medium (DMEM/F-12 with HEPES and 10% FBS).
Viable cells were assessed 72h after treatments by measuring absorbance of the
supernatant at 450 and 750 nm and are presented as percentage of control (0.42%
DMSO). Data are mean ± SEM of three independent experiments.

[1] = tested on: total peroxidase activity; test: Paw tissue total peroxidase activity after MSU; format: in vivo, male C57BL/6 mice; conditions: intraperitoneal pretreatment (RL6 30 mg/kg), tissue collected at 6 h
Experimental: After the assessment of paw edema was completed, the mice were immediately anesthetized by inhalation of 2% isoflurane mixture in oxygen (O2). Subsequently, the surface of the hind paws was collected for the measurement of total peroxidase activity, IL-6, and IL-1β. These tissue samples were then frozen using dry ice and stored at −80 °C until further analysis. The frozen tissues were later pulverized into a fine powder using liquid nitrogen and homogenized in a phosphate buffer (100 mM, pH 7.4). For the analysis of total peroxidase activity, a portion of this homogenate was mixed with hexadecyltrimethylammonium (1% HTAB, pH 6.0), vigorously vortexed, and sonicated. The resulting mixture was then centrifuged at 10,000g for 10 min, at 4 °C, and heated at 60 °C for 2 h. The sample of each supernatant was incubated with a solution containing 50 mM phosphate buffer, 0.164 mg/mL of o-dianisidine dihydrochloride, and H2O2 (0.0005%, pH 6.0). […] Each unit represents the capacity to degrade 1 μmol of H2O2 per minute.[81]

[2] = 20 μM compound, 10 nM MPO, 140 mM NaCl, 5 mM taurine, 40 μM H2O2, pH 7.4, read-out: % Inhibition (at 20 μM) Chlorinating
[3] = supplementary csv copy of Table 1, read-out: % Inhibition (Chlorinating)

Chain of Human leukocyte MPO (P05164 279-745 limits assumed): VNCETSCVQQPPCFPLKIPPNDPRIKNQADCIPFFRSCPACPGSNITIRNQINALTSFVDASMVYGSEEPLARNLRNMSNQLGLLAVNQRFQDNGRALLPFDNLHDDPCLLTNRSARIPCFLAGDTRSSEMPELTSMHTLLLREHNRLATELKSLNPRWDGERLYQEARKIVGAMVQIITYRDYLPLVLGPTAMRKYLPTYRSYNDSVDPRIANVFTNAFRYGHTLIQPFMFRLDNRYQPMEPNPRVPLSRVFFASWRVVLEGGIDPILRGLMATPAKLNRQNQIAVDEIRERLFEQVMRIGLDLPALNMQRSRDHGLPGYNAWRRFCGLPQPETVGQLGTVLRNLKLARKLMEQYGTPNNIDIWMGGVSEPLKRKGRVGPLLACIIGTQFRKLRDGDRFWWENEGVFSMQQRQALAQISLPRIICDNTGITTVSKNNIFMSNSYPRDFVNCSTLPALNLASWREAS
Chain of Human leukocyte MPO (P05164 165-278 limits assumed): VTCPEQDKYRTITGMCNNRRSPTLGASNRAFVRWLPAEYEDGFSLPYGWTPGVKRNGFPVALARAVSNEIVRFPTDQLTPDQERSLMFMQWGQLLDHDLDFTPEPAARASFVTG

Compound	reduction of paw edema (time-dependent AUC) vs VEH + MSU (MSU-induced paw edema; 10 mg/kg i.p.)	reduction of paw edema (time-dependent AUC) vs VEH + MSU (MSU-induced paw edema; 30 mg/kg i.p.)	acute toxicity observed in mice (MSU-induced paw edema; during the in vivo tests)	effect on paw edema over time (MSU-induced paw edema)	IC50 (Human leukocyte MPO; 10 nM MPO, 140 mM NaCl)	inhibition at 20 µM (Human leukocyte MPO; [2])	chlorinating/peroxidatic activity inhibition ratio (Human leukocyte MPO; ratio of % inhibition at 20 μM, ~1 indicates true enzyme inhibitor)	inhibition at 20 µM (Human leukocyte MPO; [3])	cytotoxicity to hTERT-RPE1 cells (hTERT-RPE1 cells)	reduction in total peroxidase activity in hind paw tissue [1]	reduction of paw edema (time-dependent AUC) vs VEH + MSU (MSU-induced paw edema; 3 mg/kg i.p.)	% Inhibition (at 20 μM) Chlorinating (Human leukocyte MPO; 20 μM compound, 10 nM MPO, 140 mM NaCl, 5 mM taurine, 40 μM H2O2, pH 7.4)
Nc1cc2c3c(cccc3c1)C(=O)N(N)C2=O [RL6]	80.4%	83.2%	no sign of acute toxicity	significantly prevented paw edema	270 nM	86.5 ± 15.3%	~1	86.5 ± 15.3%	no cytotoxicity	61.5%		
CN1CCc2nc3sc(C(=O)Nc4cccc(C#N)c4)c(N)c3cc2C1 [RL7]		90.2%		inhibited paw edema at all of the tested doses	560 nM	84.9 ± 17%		84.9 ± 17%	highly cytotoxic at 50 μM	unable to decrease	82.8%	active against chlorinating activity only
